According to EP1247803A2, “Indolinone compounds suitable for modulation of protein kinases” (Sugen, Inc., priority 1996, dated 1998):

target: T1, EGFR (Homo sapiens, UniProt P00533); assay: EGFR ELISA assay (in vitro kinase activity, EGFR captured from A431 cell lysate); type: biochemical; design: concentration or dose not given beside the values
T1 construct: Add 7 ug A431 cell lysate per well (EGFR source); endogenous in cells; host or cells: A431
Procedure, shortened: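 EGFR from A431 lysate was captured on anti-EGFR antibody-coated plates and preincubated with compounds for 30 min. Autophosphorylation ran 5 min with 3 uM ATP and 5 mM MnCl2 (final), stopped with 20 mM EDTA. Phosphotyrosine was detected by anti-pTyr ELISA with ABTS/H2O2, read at 410 nm.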

T1 sequence (P00533 25-1210): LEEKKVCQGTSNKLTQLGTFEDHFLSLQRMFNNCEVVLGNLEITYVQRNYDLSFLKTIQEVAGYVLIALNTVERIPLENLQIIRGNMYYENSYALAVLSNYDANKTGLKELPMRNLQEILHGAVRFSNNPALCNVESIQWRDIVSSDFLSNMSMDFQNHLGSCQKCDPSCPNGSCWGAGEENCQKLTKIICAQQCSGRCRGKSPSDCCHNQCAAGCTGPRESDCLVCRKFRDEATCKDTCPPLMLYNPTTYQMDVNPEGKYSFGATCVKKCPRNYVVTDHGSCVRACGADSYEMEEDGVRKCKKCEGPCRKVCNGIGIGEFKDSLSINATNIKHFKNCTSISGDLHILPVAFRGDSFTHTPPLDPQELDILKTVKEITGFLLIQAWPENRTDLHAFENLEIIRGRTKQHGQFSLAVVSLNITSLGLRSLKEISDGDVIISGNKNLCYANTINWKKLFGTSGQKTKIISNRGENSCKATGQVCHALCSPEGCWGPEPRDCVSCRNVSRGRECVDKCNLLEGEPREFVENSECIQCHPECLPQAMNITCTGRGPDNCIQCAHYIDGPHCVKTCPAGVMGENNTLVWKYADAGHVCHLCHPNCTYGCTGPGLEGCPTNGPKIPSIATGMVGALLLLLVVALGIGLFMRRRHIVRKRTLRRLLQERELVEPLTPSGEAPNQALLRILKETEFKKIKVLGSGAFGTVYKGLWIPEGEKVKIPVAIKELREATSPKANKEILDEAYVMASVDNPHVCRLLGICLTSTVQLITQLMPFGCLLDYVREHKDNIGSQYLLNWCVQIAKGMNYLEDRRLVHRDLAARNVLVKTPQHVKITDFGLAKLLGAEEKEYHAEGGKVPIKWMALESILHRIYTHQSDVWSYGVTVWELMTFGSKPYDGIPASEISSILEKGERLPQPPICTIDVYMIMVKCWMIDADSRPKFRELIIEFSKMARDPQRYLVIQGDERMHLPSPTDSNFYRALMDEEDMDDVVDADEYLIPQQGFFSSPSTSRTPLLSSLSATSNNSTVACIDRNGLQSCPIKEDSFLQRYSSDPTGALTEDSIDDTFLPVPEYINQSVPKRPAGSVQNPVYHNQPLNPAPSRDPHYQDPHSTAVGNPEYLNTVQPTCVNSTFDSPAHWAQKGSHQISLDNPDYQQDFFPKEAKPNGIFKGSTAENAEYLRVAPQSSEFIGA

Compared with `Cc1[nH]c(C=C2C(=O)Nc3c(Br)cc(Br)cc32)c(Br)c1Br` [10717/A11], `O=C1Nc2c(Br)cc(Br)cc2C1=Cc1cc(Br)cc(Br)c1O` [10734/A07] is lower in “Biochem EGFR %Inhibition” value: 59.9% for the first, 15.2% for the second.

First: O=C1Nc2ccc(S(=O)(=O)Nc3ccc(C(F)(F)F)cc3)cc2C1=Cc1ccc2ccccc2c1O [10718/E04]
Second: Cc1c(O)ccc(C=C2C(=O)Nc3ccc(S(=O)(=O)Nc4ccc(C(F)(F)F)cc4)cc32)c1O [10718/E09]
The “Biochem EGFR %Inhibition” value of the first is lower: 16.4% for the first, 17.0% for the second.

First: CCOC(=O)CCc1c(C(=O)OCC)[nH]c(C=C2C(=O)Nc3ccc(S(=O)(=O)Nc4ccc(C(F)(F)F)cc4)cc32)c1CC(=O)OCC [10718/E05]
Second: COC(=O)c1[nH]c(C)c(C=C2C(=O)Nc3ccc(S(=O)(=O)Nc4ccc(C(F)(F)F)cc4)cc32)c1C(=O)OC [10718/E07]
The “Biochem EGFR %Inhibition” value of the first is lower: -3.1% for the first, 13.9% for the second.

First: CCOC(=O)c1cc(C=C2C(=O)Nc3ccc(S(=O)(=O)Nc4ccc(C(F)(F)F)cc4)cc32)oc1C [10718/E06]
Second: O=C1Nc2ccc(S(=O)(=O)Nc3ccc(C(F)(F)F)cc3)cc2C1=Cc1ccc([N+](=O)[O-])o1 [10718/E11]
The “Biochem EGFR %Inhibition” value of the first is higher: 2.0% for the first, -15.2% for the second.

Compared with `O=C1Nc2ccc(S(=O)(=O)Nc3ccc(C(F)(F)F)cc3)cc2C1=Cc1ccc(Cl)c([N+](=O)[O-])c1` [10718/E08], `O=C1Nc2ccc(S(=O)(=O)Nc3ccc(C(F)(F)F)cc3)cc2C1=Cc1cc([N+](=O)[O-])ccc1O` [10733/E10] is higher in “Biochem EGFR %Inhibition” value: 9.3% for the first, 31.3% for the second.

First: O=C1Nc2ccc(S(=O)(=O)Nc3ccc(C(F)(F)F)cc3)cc2C1=Cc1ccco1 [10718/E10]
Second: O=C1Nc2ccc(S(=O)(=O)Nc3ccc(C(F)(F)F)cc3)cc2C1=Cc1cc(Br)ccc1O [10733/E09]
The “Biochem EGFR %Inhibition” value of the first is lower: -7.5% for the first, 72.4% for the second.

Going from `COc1c([N+](=O)[O-])cc(C=C2C(=O)Nc3ccc(S(=O)(=O)Nc4ccc(C(F)(F)F)cc4)cc32)cc1C(C)(C)C` [10733/E03] to `COc1c(C(C)(C)C)cc(C=C2C(=O)Nc3ccc(S(=O)(=O)Nc4ccc(C(F)(F)F)cc4)cc32)cc1C(C)(C)C` [10733/E04], the “Biochem EGFR %Inhibition” value rises from 10.7% to 45.4%.

Compared with `CC(C)(C)c1cc(C=C2C(=O)Nc3ccc(S(=O)(=O)Nc4ccc(C(F)(F)F)cc4)cc32)cc(C(C)(C)C)c1OCc1ccccc1` [10733/E05], `Cc1cc(C=C2C(=O)Nc3ccc(S(=O)(=O)Nc4ccc(C(F)(F)F)cc4)cc32)cc(C)c1OCc1ccccc1` [10733/E07] is lower in “Biochem EGFR %Inhibition” value: 58.3% for the first, 19.9% for the second.

Compared with `COc1c(C)cc(C=C2C(=O)Nc3ccc(S(=O)(=O)Nc4ccc(C(F)(F)F)cc4)cc32)cc1C` [10733/E06], `COc1cc(Br)cc(C=C2C(=O)Nc3ccc(S(=O)(=O)Nc4ccc(C(F)(F)F)cc4)cc32)c1O` [10733/E08] is higher in “Biochem EGFR %Inhibition” value: 37.3% for the first, 54.2% for the second.

First: COc1c(O)ccc(C=C2C(=O)Nc3ccc(S(=O)(=O)Nc4ccc(C(F)(F)F)cc4)cc32)c1[N+](=O)[O-] [10733/E11]
Second: COc1c(O)ccc(C=C2C(=O)Nc3ccc(S(=O)(=O)N4CCOCC4)cc32)c1[N+](=O)[O-] [10733/F11]
The “Biochem EGFR %Inhibition” value of the first is higher: 31.6% for the first, 0.6% for the second.

Going from `CC(C)(C)c1cc(C=C2C(=O)Nc3ccc(S(=O)(=O)N4CCOCC4)cc32)cc(I)c1OCc1ccccc1` [10733/F02] to `CC(C)(C)c1cc(C=C2C(=O)Nc3ccc(S(=O)(=O)N4CCOCC4)cc32)cc(C(C)(C)C)c1OCc1ccccc1` [10733/F05], the “Biochem EGFR %Inhibition” value rises from 11.3% to 84.6%.

Going from `COc1c([N+](=O)[O-])cc(C=C2C(=O)Nc3ccc(S(=O)(=O)N4CCOCC4)cc32)cc1C(C)(C)C` [10733/F03] to `COc1c(C(C)(C)C)cc(C=C2C(=O)Nc3ccc(S(=O)(=O)N4CCOCC4)cc32)cc1C(C)(C)C` [10733/F04], the “Biochem EGFR %Inhibition” value rises from -3.6% to 76.3%.

Going from `COc1c(C)cc(C=C2C(=O)Nc3ccc(S(=O)(=O)N4CCOCC4)cc32)cc1C` [10733/F06] to `Cc1cc(C=C2C(=O)Nc3ccc(S(=O)(=O)N4CCOCC4)cc32)cc(C)c1OCc1ccccc1` [10733/F07], the “Biochem EGFR %Inhibition” value rises from 17.8% to 19.2%.

First: COc1cc(Br)cc(C=C2C(=O)Nc3ccc(S(=O)(=O)N4CCOCC4)cc32)c1O [10733/F08]
Second: O=C1Nc2ccc(S(=O)(=O)N3CCOCC3)cc2C1=Cc1cc(Br)ccc1O [10733/F09]
The “Biochem EGFR %Inhibition” value of the first is lower: 17.2% for the first, 30.1% for the second.

First: O=C1Nc2ccc(S(=O)(=O)N3CCOCC3)cc2C1=Cc1cc([N+](=O)[O-])ccc1O [10733/F10]
Second: O=C1Nc2ccc(CCCl)cc2C1=Cc1cc([N+](=O)[O-])ccc1O [10733/G10]
The “Biochem EGFR %Inhibition” value of the first is higher: 21.9% for the first, 18.2% for the second.

Going from `CC(C)(C)c1cc(C=C2C(=O)Nc3ccc(CCCl)cc32)cc(I)c1OCc1ccccc1` [10733/G02] to `CC(C)(C)c1cc(C=C2C(=O)Nc3ccc(CCCl)cc32)cc(C(C)(C)C)c1OCc1ccccc1` [10733/G05], the “Biochem EGFR %Inhibition” value rises from -6.2% to 1.5%.

Compared with `COc1c([N+](=O)[O-])cc(C=C2C(=O)Nc3ccc(CCCl)cc32)cc1C(C)(C)C` [10733/G03], `COc1c(C(C)(C)C)cc(C=C2C(=O)Nc3ccc(CCCl)cc32)cc1C(C)(C)C` [10733/G04] is higher in “Biochem EGFR %Inhibition” value: 0.7% for the first, 10.6% for the second.

Compared with `COc1c(C)cc(C=C2C(=O)Nc3ccc(CCCl)cc32)cc1C` [10733/G06], `Cc1cc(C=C2C(=O)Nc3ccc(CCCl)cc32)cc(C)c1OCc1ccccc1` [10733/G07] is higher in “Biochem EGFR %Inhibition” value: 5.2% for the first, 18.1% for the second.

Going from `COc1cc(Br)cc(C=C2C(=O)Nc3ccc(CCCl)cc32)c1O` [10733/G08] to `O=C1Nc2ccc(CCCl)cc2C1=Cc1cc(Br)ccc1O` [10733/G09], the “Biochem EGFR %Inhibition” value falls from 44.2% to 38.7%.

Compared with `COc1c(O)ccc(C=C2C(=O)Nc3ccc(CCCl)cc32)c1[N+](=O)[O-]` [10733/G11], `O=C1Nc2ccc(I)cc2C1=Cc1cc(Cl)ccc1O` [10734/B04] is higher in “Biochem EGFR %Inhibition” value: -1.0% for the first, 38.7% for the second.

Going from `CCOc1cccc(C=C2C(=O)Nc3c(Br)cc(Br)cc32)c1O` [10734/A02] to `O=C1Nc2c(Br)cc(Br)cc2C1=Cc1cccc(F)c1O` [10734/A08], the “Biochem EGFR %Inhibition” value rises from 0.0% to 6.8%.

First: O=C1Nc2c(Br)cc(Br)cc2C1=Cc1cc(Cl)cc(Cl)c1O [10734/A03]
Second: O=C1Nc2c(Br)cc(Br)cc2C1=Cc1cc(Cl)ccc1O [10734/A04]
The “Biochem EGFR %Inhibition” value of the first is higher: 18.5% for the first, 11.4% for the second.

Compared with `CCN(CC)c1ccc(C=C2C(=O)Nc3c(Br)cc(Br)cc32)c(O)c1` [10734/A05], `CCN(CC)c1ccc(C=C2C(=O)Nc3ccc(Br)c(C)c32)c(O)c1` [10734/C05] is lower in “Biochem EGFR %Inhibition” value: 22.6% for the first, 9.3% for the second.

Going from `O=C1Nc2c(Br)cc(Br)cc2C1=Cc1ccc([N+](=O)[O-])cc1` [10734/A06] to `CC(C)(C)c1ccc(C=C2C(=O)Nc3c(Br)cc(Br)cc32)cc1` [10734/A10], the “Biochem EGFR %Inhibition” value rises from -6.4% to 27.8%.

First: O=C1Nc2c(Br)cc(Br)cc2C1=Cc1ccc(O)c(Br)c1 [10734/A09]
Second: O=C1Nc2c(Br)cc(Br)cc2C1=Cc1ccc(Br)s1 [10734/A11]
The “Biochem EGFR %Inhibition” value of the first is higher: 27.3% for the first, 12.5% for the second.

First: CCOc1cccc(C=C2C(=O)Nc3ccc(I)cc32)c1O [10734/B02]
Second: O=C1Nc2ccc(I)cc2C1=Cc1cccc(F)c1O [10734/B08]
The “Biochem EGFR %Inhibition” value of the first is lower: -8.9% for the first, 19.3% for the second.

First: O=C1Nc2ccc(I)cc2C1=Cc1cc(Cl)cc(Cl)c1O [10734/B03]
Second: CNS(=O)(=O)c1ccc2c(c1)C(=Cc1cc(Cl)cc(Cl)c1O)C(=O)N2 [10734/D03]
The “Biochem EGFR %Inhibition” value of the first is higher: 45.1% for the first, 19.6% for the second.

Compared with `CCN(CC)c1ccc(C=C2C(=O)Nc3ccc(I)cc32)c(O)c1` [10734/B05], `CCN(CC)c1ccc(C=C2C(=O)Nc3ccc(S(=O)(=O)NC)cc32)c(O)c1` [10734/D05] is lower in “Biochem EGFR %Inhibition” value: 17.8% for the first, -9.6% for the second.

Going from `O=C1Nc2ccc(I)cc2C1=Cc1ccc([N+](=O)[O-])cc1` [10734/B06] to `CNS(=O)(=O)c1ccc2c(c1)C(=Cc1ccc([N+](=O)[O-])cc1)C(=O)N2` [10734/D06], the “Biochem EGFR %Inhibition” value falls from 54.0% to 1.3%.

Compared with `O=C1Nc2ccc(I)cc2C1=Cc1cc(Br)cc(Br)c1O` [10734/B07], `CNS(=O)(=O)c1ccc2c(c1)C(=Cc1cc(Br)cc(Br)c1O)C(=O)N2` [10734/D07] is lower in “Biochem EGFR %Inhibition” value: 65.5% for the first, 51.1% for the second.

Compared with `O=C1Nc2ccc(I)cc2C1=Cc1ccc(O)c(Br)c1` [10734/B09], `Cc1c(Br)ccc2c1C(=Cc1ccc(O)c(Br)c1)C(=O)N2` [10734/C09] is higher in “Biochem EGFR %Inhibition” value: 34.9% for the first, 36.2% for the second.

Going from `CC(C)(C)c1ccc(C=C2C(=O)Nc3ccc(I)cc32)cc1` [10734/B10] to `Cc1c(Br)ccc2c1C(=Cc1ccc(C(C)(C)C)cc1)C(=O)N2` [10734/C10], the “Biochem EGFR %Inhibition” value falls from 60.7% to 24.4%.

Compared with `O=C1Nc2ccc(I)cc2C1=Cc1ccc(Br)s1` [10734/B11], `Cc1c(Br)ccc2c1C(=Cc1ccc(Br)s1)C(=O)N2` [10734/C11] is lower in “Biochem EGFR %Inhibition” value: 50.9% for the first, 18.0% for the second.

First: CCOc1cccc(C=C2C(=O)Nc3ccc(Br)c(C)c32)c1O [10734/C02]
Second: Cc1c(Br)ccc2c1C(=Cc1cccc(F)c1O)C(=O)N2 [10734/C08]
The “Biochem EGFR %Inhibition” value of the first is lower: -6.7% for the first, 35.1% for the second.

First: Cc1c(Br)ccc2c1C(=Cc1cc(Cl)cc(Cl)c1O)C(=O)N2 [10734/C03]
Second: Cc1c(Br)ccc2c1C(=Cc1cc(Cl)ccc1O)C(=O)N2 [10734/C04]
The “Biochem EGFR %Inhibition” value of the first is higher: 48.6% for the first, 38.1% for the second.

Going from `Cc1c(Br)ccc2c1C(=Cc1ccc([N+](=O)[O-])cc1)C(=O)N2` [10734/C06] to `Cc1c(Br)ccc2c1C(=Cc1cc(Br)cc(Br)c1O)C(=O)N2` [10734/C07], the “Biochem EGFR %Inhibition” value rises from 18.4% to 41.0%.

First: CCOc1cccc(C=C2C(=O)Nc3ccc(S(=O)(=O)NC)cc32)c1O [10734/D02]
Second: CNS(=O)(=O)c1ccc2c(c1)C(=Cc1cc(Cl)ccc1O)C(=O)N2 [10734/D04]
The “Biochem EGFR %Inhibition” value of the first is higher: 5.2% for the first, -10.7% for the second.
